# From US20230242530A1, “8-(AZETIDIN-1-YL)-[1,2,4]TRIAZOLO[1,5-A]PYRIDINYL COMPOUNDS, COMPOSITIONS AND METHODS OF USE THEREOF” (Genentech, Inc., priority 2016, published 2023)
# Tests used:
# [1] = biological target: T1, isolated recombinant JAK1 kinase domain (Homo sapiens, UniProt P23458); test: JAK enzyme assay, JAK1 kinase domain (Caliper LabChip); type: biochemical; conditions: 1.5 nM JAK1, ATP 25 μM, Morrison tight binding model
# T1 construct: isolated recombinant JAK1 and JAK2 kinase domain
# T1 sequence (P23458 875-1153 limits assumed): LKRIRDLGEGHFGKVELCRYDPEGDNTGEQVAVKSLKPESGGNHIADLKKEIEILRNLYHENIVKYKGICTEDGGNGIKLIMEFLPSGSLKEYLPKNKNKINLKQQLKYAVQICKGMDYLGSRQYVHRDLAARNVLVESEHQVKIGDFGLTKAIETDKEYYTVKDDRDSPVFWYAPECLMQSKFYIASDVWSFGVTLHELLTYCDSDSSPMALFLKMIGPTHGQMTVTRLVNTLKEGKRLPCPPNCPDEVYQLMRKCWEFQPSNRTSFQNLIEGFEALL
# How it was run: (§1)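 Recombinant kinase domains phosphorylated a 5-carboxyfluorescein-labelled JAK3-derived peptide for 30 min at 22 °C, and the reaction was stopped with EDTA (50 mM final). Product fraction was measured by Caliper LabChip mobility shift. Ki came from Morrison tight-binding fits corrected for ATP competition (Ki=Ki,app/(1+[ATP]/Km,app)).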
# [2] = biological target: T2, isolated recombinant JAK2 kinase domain (Homo sapiens, UniProt O60674); test: JAK enzyme assay, JAK2 kinase domain (Caliper LabChip); type: biochemical; conditions: 0.2 nM JAK2, ATP 25 μM, Morrison tight binding model
# T2 construct: isolated recombinant JAK1 and JAK2 kinase domain
# T2 sequence (O60674 849-1124 limits assumed): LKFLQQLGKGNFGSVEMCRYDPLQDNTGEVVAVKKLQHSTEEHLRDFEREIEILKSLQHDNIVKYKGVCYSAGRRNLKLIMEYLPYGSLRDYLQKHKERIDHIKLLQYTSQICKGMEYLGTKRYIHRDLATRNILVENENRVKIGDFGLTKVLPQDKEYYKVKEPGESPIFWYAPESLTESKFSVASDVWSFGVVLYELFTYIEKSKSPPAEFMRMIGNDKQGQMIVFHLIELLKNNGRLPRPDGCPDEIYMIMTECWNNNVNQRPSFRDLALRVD
# How it was run: as §1
# [3] = system: JAK1-dependent STAT6 phosphorylation downstream of IL-13 stimulation in BEAS-2B cells; test: JAK1 pathway assay in cell lines: IL-13 p-STAT6 BEAS-2B; type: cell-based; conditions: BEAS-2B human bronchial epithelial cells, 1 hr compound, IL-13 15 min, MSD readout
# How it was run: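 BEAS-2B cells plated a day ahead in complete growth medium; compounds added 1 hr at 37 °C (0.2% DMSO final), then IL-13 at lot-specific EC90 for 15 min at 37 °C. Phospho-STAT6 in lysates measured by MSD; EC50 is 50% inhibition relative to DMSO control.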
Structure (SMILES),Ki [1] [pM],Ki [2] [pM],EC50 [3] [pM]
"Cn1cc(Nc2nc3c(N4CC(CC#N)(n5cc(C(F)(F)F)cn5)C4)cccn3n2)cn1 [Example 135, 2-[1-[2-[(l-methylpyrazol-4-yl)amino]-[1,2,4]triazolo[1,5-a]pyridin-8-yl]-3-[4-(trifluoromethyl)pyrazol-1-yl]azetidin-3-yl]acetonitrile]",300,500,10000
N#CCC1(n2cc(C(F)(F)F)cn2)CN(c2cccn3nc(Nc4cnn(CCCO)c4)nc23)C1 [Example 136],900,800,20000
"COc1cnn(C2(CC#N)CN(c3cccn4nc(Nc5cnn(C)c5)nc34)C2)c1 [Example 137, 2-[3-(4-methoxypyrazol-1-yl)-1-[2-[(l-methylpyrazol-4-yl)amino]-[1,2,4]triazolo[1,5-a]pyridin-8-yl]azetidin-3-yl]acetonitrile]",500,2800,39000
"CC(C)c1cnn(C2(CC#N)CN(c3cccn4nc(Nc5cnn(C)c5)nc34)C2)c1 [Example 138, 2-[3-(4-isopropylpyrazol-1-yl)-1-[2-[(l-methylpyrazol-4-yl)amino]-[1,2,4]triazolo[1,5-a]pyridin-8-yl]azetidin-3-yl]acetonitrile]",200,300,16000
"COc1cnn(C2(CC#N)CN(c3cccn4nc(Nc5cn[nH]c5)nc34)C2)c1 [Example 139, 2-[3-(4-methoxypyrazol-1-yl)-1-[2-(1H-pyrazol-4-ylamino)-[1,2,4]triazolo[1,5-a]pyridin-8-yl]azetidin-3-yl]acetonitrile]",400,900,39000
"N#CCC1(n2cc(C3CC3)cn2)CN(c2cccn3nc(Nc4cn[nH]c4)nc23)C1 [Example 140, 2-[3-(4-cyclopropylpyrazol-1-yl)-1-[2-(1H-pyrazol-4-ylamino)-[1,2,4]triazolo[1,5-a]pyridin-8-yl]azetidin-3-yl]acetonitrile]",100,200,11000
"CC(C)c1cnn(C2(CC#N)CN(c3cccn4nc(Nc5cn[nH]c5)nc34)C2)c1 [Example 141, 2-[3-(4-isopropylpyrazol-1-yl)-1-[2-(1H-pyrazol-4-ylamino)-[1,2,4]triazolo[1,5-a]pyridin-8-yl]azetidin-3-yl]acetonitrile]",100,100,9000
"Cn1cc(Nc2nc3c(N4CC(CC#N)(n5cc(C6CC6)cn5)C4)cccn3n2)cn1 [Example 142, 2-[3-(4-cyclopropylpyrazol-1-yl)-1-[2-[(l-methylpyrazol-4-yl)amino]-[1,2,4]triazolo[1,5-a]pyridin-8-yl]azetidin-3-yl]acetonitrile]",400,500,14000
"CCc1cnn(C2(CC#N)CN(c3cccn4nc(Nc5cnn(CC(=O)N(C)C)c5)nc34)C2)c1 [Example 143, 2-[4-[[8-[3-(cyanomethyl)-3-(4-ethylpyrazol-1-yl)azetidin-1-yl]-[1,2,4]triazolo[1,5-a]pyridin-2-yl]amino]pyrazol-1-yl]-N,N-dimethyl-acetamide]",600,1700,31000
"CSc1cnn(C2(CC#N)CN(c3cccn4nc(Nc5cn[nH]c5)nc34)C2)c1 [Example 144, 2-[3-(4-methylsulfanyIpyrazol-1-yl)-1-[2-(1H-pyrazol-4-ylamino)-[1,2,4]triazolo[1,5-a]pyridin-8-yl]azetidin-3-yl]acetonitrile]",100,300,7000
"Cn1cc(Nc2nc3c(N4CC(CC#N)(n5cc(OC(F)F)cn5)C4)cccn3n2)cn1 [Example 145, 2-[3-[4-(difluoromethoxy)pyrazol-1-yl]-1-[2-[(l-methylpyrazol-4-yl)amino]-[1,2,4]triazolo[1,5-a]pyridin-8-yl]azetidin-3-yl]acetonitrile]",200,300,6000
"N#CCC1(n2cc(OC(F)F)cn2)CN(c2cccn3nc(Nc4cn[nH]c4)nc23)C1 [Example 146, 2-[3-[4-(difluoromethoxy)pyrazol-1-yl]-1-[2-(1H-pyrazol-4-ylamino)-[1,2,4]triazolo[1,5-a]pyridin-8-yl]azetidin-3-yl]acetonitrile]",200,300,7000
"CSc1cnn(C2(CC#N)CN(c3cccn4nc(Nc5cnn(C)c5)nc34)C2)c1 [Example 147, 2-[1-[2-[(1-methylpyrazol-4-yl)amino]-[1,2,4]triazolo[1,5-a]pyridin-8-yl]-3-(4-methylsulfanylpyrazol-1-yl)azetidin-3-yl]acetonitrile]",300,600,10000
"CCc1cnn(C2(CC#N)CN(c3cccn4nc(Nc5cnn(CC(F)F)c5)nc34)C2)c1 [Example 148, 2-[1-[2-[[1-(2,2-difluoroethyl)pyrazol-4-yl]amino]-[1,2,4]triazolo[1,5-a]pyridin-8-yl]-3-(4-ethylpyrazol-1-yl)azetidin-3-yl]acetonitrile]",100,400,8000
"N#CCC1(n2cc(CCF)cn2)CN(c2cccn3nc(Nc4cn[nH]c4)nc23)C1 [Example 149, 2-[3-[4-(2-fluoroethyl)pyrazol-1-yl]-1-[2-(1H-pyrazol-4-ylamino)-[1,2,4]triazolo[1,5-a]pyridin-8-yl]azetidin-3-yl]acetonitrile]",300,600,21000
"N#CCC1(n2cc(OC(F)F)cn2)CN(c2cccn3nc(Nc4cnn(CC(F)F)c4)nc23)C1 [Example 150, 2-[1-[2-[[1-(2,2-difluoroethyl)pyrazol-4-yl]amino]-[1,2,4]triazolo[1,5-a]pyridin-8-yl]-3-[4-(difluoromethoxy)pyrazol-1-yl]azetidin-3-yl]acetonitrile]",100,200,6000
"N#CCC1(n2cc(SC(F)F)cn2)CN(c2cccn3nc(Nc4cn[nH]c4)nc23)C1 [Example 151, 2-[3-[4-(difluoromethylsulfanyl)pyrazol-1-yl]-1-[2-(1H-pyrazol-4-ylamino)-[1,2,4]triazolo[1,5-a]pyridin-8-yl]azetidin-3-yl]acetonitrile]",100,1400,42000
"CCc1cnn(C2(CC#N)CN(c3cccn4nc(Nc5cnn[nH]5)nc34)C2)c1 [Example 152, 2-(1-(2-((1H-1,2,3-triazol-5-yl)amino)-[1,2,4]triazolo[1,5-a]pyridin-8-yl)-3-(4-ethyl-1H-pyrazol-1-yl)azetidin-3-yl)acetonitrile]",700,100,5000
